A word on the solubility: it is the concentration that dissolves in the medium under given conditions. The low end stands for a poorly soluble substance, the high end for a readily soluble substance. The term Cmax denotes the peak of the concentration-time curve. By Tmax is commonly meant the time from dosing to the highest level.

A short description of series [1]: Pharmacokinetics experiment, oral administration, blood concentration by LC/MS/MS. To be noted: 120 mg/kg oral. It counts as in vivo, SD rats. The method, then: 9-week-old female […], SD rats, weighing 320±20 g each, were used in the experiment (SPF, production firm: coretech). ODV phosphate compound prepared by the embodiment was dissolved in solvent (100% distilled water) and 120 mg/kg of the same was orally administered to 3 mice. After 0.08, 0.25, 0.5, 1, 2, 3, 4, 6 hours of administration, blood was taken from mice, and separated by centrifuge. The concentration of the separated blood was measured with LC/MS/MS. As a comparative example, ODV succinate hydrate was measured in the same manner explained above.
Cmax is the highest concentration level of blood in body, Tmax is the time to reach the highest concentration level of blood, AUC0-t is square between blood concentration to time and time, AUC0-inf is square between blood concentration and time, and t1/2 is half-life of compound in body, and MRTinf is remaining period of compound in body.

Series [2] can be described thus: Measurement of solubility in water (HPLC, saturated solution). It counts as physicochemical. The method, then: Experiment was conducted to measure water solubility of ODV phosphate compound of the present invention.
40, 50 and 60 mg of ODV phosphate composition prepared by the embodiment was mixed in 100 mL of water to form 0.4, 0.5 and 0.6 mg/mL concentration of ODV phosphate solution respectively. The above ODV phosphate solution and internal standard substance were analyzed with HPLC to measure ODV phosphate according to the concentration of ODV phosphate and peak area ratio of internal standard substance, and a calibration curve was set. The HPLC analysis was done many times to measure the average value of the calibration curve.
An excessive amount of ODV phosphate compound (approximately 400 mg) prepared by the embodiment was dissolved in 2 mL of water and filtered to form a saturated solution. 1 mL of the above saturated solution was diluted with water to prepare 20 mL of solution. The diluting process was repeated many times to form saturated solution with 800 times of dilution rate. This solution and internal standard substance were analyzed with HPLC to measure ODV phosphate and peak area ratio of internal standard. The measured value was substituted in calibration curve to calculate the concentration, and multiply the dilution rate to measure solubility.

A further series deals with ICR mice. The series can be described thus: Acute toxicity experiment, intraperitoneal injection, number of dead mice over 7 days. The note with it: for The number of death mice: Day 1, 8 mice. The format is in vivo. The method, then: Experiment was conducted to measure acute toxicity of ODV phosphate compound according to an embodiment of the present invention.
7-week-old ICR mice, weighing 25˜35 g each, were used in the experiment (SPF, production firm: coretech).

On to `CN(C)CC(c1ccc(OP(=O)(O)O)cc1)C1(O)CCCCC1` (stereo not shown) [ODV phosphate, {4-[2-(dimethylamino)-1-(1-hydroxycyclohexyl)ethyl]phenoxy}phosphate], for which, in series [1], the “AUC0-inf compared with ODV succinate hydrate” value was “noticeably higher” and the “Cmax compared with ODV succinate hydrate” value is listed as “noticeably higher”. Besides, the “water solubility, times higher than ODV succinate” value in series [2] (313.4 vs […]) worked out at 4 times. The molecule also displayed a solubility in series [2] (thermodynamic from solid) of 313 mg/mL. In addition, the “dead mice over the whole observation” value with ICR mice (450 mg/kg i.p., for 7 days, 8 mice) is “no mice were dead”.

Regarding `CN(C)CC(c1ccc(O)cc1)C1(O)CCCCC1.O=C(O)CCC(=O)O` (stereo not shown) [ODV succinate], in series [1] (blood), the AUC0-inf is 9268.8 ng·h/mL, the Cmax came out at 2786.7 ng/mL, the MRTinf stood at 5.7 h and the Tmax was 0.5 h. The same molecule came in with a t1/2 in series [1] (blood) of 5.0 h. The AUC0-t in series [1] (blood, sampling to 6 hours) is 7017.4 ng·h/mL. Also, in the series on ICR mice (350 mg/kg i.p.), the “The number of death mice” value is 2. For the same molecule, the “The number of death mice” value with ICR mice (450 mg/kg i.p.) came out at 8.
